According to paper PMC11374673, “Discovery of isoquinoline sulfonamides as allosteric gyrase inhibitors with activity against fluoroquinolone-resistant bacteria” (Nature Chemistry, 2024):
Several values for one entry are separate records, joined by “and”; a condition that tells them apart may be missing. Identical values can stand only once. Entries after “also recorded” stand apart in the source; their conditions may differ.

Legend:
sheep blood cells = experiment: Haemolytic activity; assay type: cell-based; conditions: 20 h incubation with sheep blood cells
Protocol: Whole defibrinated sheep blood (10631715, Fisher Scientific) was centrifuged (400g) for 15 min at 4 °C. The supernatant was discarded and the remaining blood cell suspension was mixed with PBS and centrifuged (400g) for 15 min at 4 °C. Washing cycles were repeated at least three times, until the supernatant was clear after centrifugation. The packed blood cells were diluted 25-fold in PBS with 0.002% polysorbate 80. Test compounds were serially diluted twofold in U-bottom polypropylene 96-well microtitre plates in PBS with 0.002% polysorbate 80 (75 µl). An equal volume (75 µl) of the blood cell suspension was added to all wells. […]. The well plates were incubated for 20 h at 37 °C with continuous shaking (500 r.p.m.). After incubation, plates were centrifuged (800g) for 5 min, and 25 µl of supernatant was transferred to a clear UV-star flat-bottom polystyrene 96-well plate containing 100 µl ultrapure water per well. Absorption was measured at 415 nm with a Spark multimode microplate reader (Tecan). Data were corrected for the background response of 0.5% DMSO in the presence of cells with no antibiotic and normalized using the absorbance of 0.1% Triton X-100 with blood cells, as 100% haemolytic activity.

E. coli gyrase [1] = molecular target: T1, E. coli gyrase (Escherichia coli, UniProt P0AES4); experiment: ATP-independent relaxation inhibition; assay type: biochemical; conditions: 200 nM gyrase
Protocol: E. coli relaxation inhibition assays were conducted in a similar manner to supercoiling inhibition assays with the following modifications: spermidine and ATP were omitted from the assay buffer, supercoiled plasmid (pBR322) was used as DNA substrate and 200 nM E. coli gyrase was added to each reaction. After stopping each reaction with STEB, 3 µl 2% SDS was added and tubes were vigorously vortexed before loading the aqueous phase onto the gel.

E. coli gyrase [2] = molecular target: T1, E. coli gyrase; experiment: Time course of CIP- and Ca2+-mediated DNA cleavage; assay type: biochemical; conditions: 5 µM LEI-800
Protocol: Time courses of CIP- and Ca^2+-mediated DNA cleavage were performed based on a previously published protocol. E. coli gyrase (200 nM) was incubated at 25 °C in 360 µl reactions with assay buffer (35 mM Tris–HCl (pH 7.5), 24 mM KCl, 4 mM MgCl2, 2 mM DTT, 1.8 mM spermidine, 1 mM ATP, 6.5% (wt/vol) glycerol and 0.1 mg ml^−1 albumin) and 500 ng supercoiled pBR322 DNA (Inspiralis Ltd.). For CIP-induced cleavage, 5 µM […] into the master mix. For Ca^2+-induced cleavage, the assay buffer was supplemented with 5 mM CaCl2. […] At selected timepoints, 30 µl aliquots were withdrawn and stopped by an addition of 3 µl 2% SDS and 3 µl 100 mM EDTA. After the time course, aliquots were treated with proteinase K (0.5 mg ml^−1) for 30 min at 37 °C and extracted with 30 µ chloroform:isoamyl alcohol solution (24:1 vol/vol). The aqueous layers from the assays were mixed with 30 µl STEB and run on 1% agarose TAE gels with 10 µg ml^−1 ethidium bromide at 80 V. Gels were visualized and analysed as described for the supercoiling inhibition assays.

E. coli W3110 = experiment: Time-kill assay
Protocol: From glycerol stocks, bacterial strains were cultured on blood agar plates by overnight incubation at 37 °C. Subsequently, a single colony was cultured in TSB overnight at 37 °C. The culture was diluted 100-fold in fresh CAMHB and grown until early exponential phase (OD600 of 0.25) followed by 100-fold dilution in media. The culture was split in separate culture tubes containing 2 ml. […] The supernatant was discarded and pellets were washed once with filter-sterilized PBS, then resuspended in an equal volume of fresh buffer and samples were tenfold serially diluted until a 10^5 dilution. Then, 10 µl of the appropriate dilutions were inoculated on LB agar plates in technical duplicates, subsequently allowed to evaporate and incubated at 37 °C for 18 h. The colonies were counted and used to calculate the colony forming unit (c.f.u.) per ml remaining in the original culture by taking the dilution factors into account. The experiment was performed in biological duplicates.

T1 sequence (P0AES4 whole entry): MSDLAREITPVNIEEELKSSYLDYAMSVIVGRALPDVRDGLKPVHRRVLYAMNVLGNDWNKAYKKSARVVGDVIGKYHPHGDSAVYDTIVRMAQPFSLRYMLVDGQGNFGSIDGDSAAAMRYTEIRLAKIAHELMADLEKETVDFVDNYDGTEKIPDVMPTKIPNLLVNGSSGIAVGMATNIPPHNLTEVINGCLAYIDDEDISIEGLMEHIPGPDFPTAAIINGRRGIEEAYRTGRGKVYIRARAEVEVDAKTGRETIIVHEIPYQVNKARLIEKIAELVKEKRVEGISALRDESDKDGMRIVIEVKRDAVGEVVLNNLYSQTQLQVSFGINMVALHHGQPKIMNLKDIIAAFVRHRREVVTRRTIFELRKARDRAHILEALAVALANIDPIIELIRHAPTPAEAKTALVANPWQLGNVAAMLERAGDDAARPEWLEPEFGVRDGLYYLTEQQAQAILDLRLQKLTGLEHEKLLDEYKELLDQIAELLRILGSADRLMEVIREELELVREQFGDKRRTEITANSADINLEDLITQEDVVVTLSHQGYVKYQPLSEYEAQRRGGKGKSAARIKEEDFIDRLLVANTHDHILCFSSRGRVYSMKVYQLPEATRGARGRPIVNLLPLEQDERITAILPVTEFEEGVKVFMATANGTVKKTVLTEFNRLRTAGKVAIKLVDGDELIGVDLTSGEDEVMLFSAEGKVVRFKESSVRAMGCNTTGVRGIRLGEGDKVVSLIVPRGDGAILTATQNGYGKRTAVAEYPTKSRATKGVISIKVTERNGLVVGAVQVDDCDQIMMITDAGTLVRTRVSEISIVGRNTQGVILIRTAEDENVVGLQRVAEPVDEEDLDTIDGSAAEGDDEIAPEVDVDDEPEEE

O=S(=O)(NC[C@@H]1CC[C@H](c2ccc(-c3cccnc3)cc2)N1)c1cccc2cnccc12 [LEI-800]
haemolytic activity (sheep blood cells): no haemolytic activity
ATP-independent supercoiling relaxation (E. coli gyrase [1]): inhibited
CIP-mediated DNA cleavage (E. coli gyrase [2]; 5 µM CIP): amount of cleaved DNA is reduced; also recorded: clear inhibition
Ca2+-mediated DNA cleavage (E. coli gyrase [2]; 5 mM Ca2+): amount of cleaved DNA is reduced; also recorded: strongly inhibited
time kill kinetics, bacterial count (E. coli W3110; 4xMIC, 0.5 h, n = 1 and n = 2): 5.021 and 5.23
time kill kinetics, bacterial count (E. coli W3110; 4xMIC, 1 h): 5.061 and 4.929
time kill kinetics, bacterial count (E. coli W3110; 4xMIC, 2 h): 5.041 and 5.176
time kill kinetics, bacterial count (E. coli W3110; 4xMIC, 4 h): 3.061 and 3.243
time kill kinetics, bacterial count (E. coli W3110; 4xMIC, 8 h): 2 and 2.778
time kill kinetics, bacterial count (E. coli W3110; 4xMIC, 24 h): 5.176 and 4.875
time kill kinetics, bacterial count (E. coli W3110; 8xMIC, 0.5 h): 5.243 and 5.021
time kill kinetics, bacterial count (E. coli W3110; 8xMIC, 1 h): 4.431 and 4.732
time kill kinetics, bacterial count (E. coli W3110; 8xMIC, 2 h): 4.903 and 5
time kill kinetics, bacterial count (E. coli W3110; 8xMIC, 4 h): 3.13 and 3.079
time kill kinetics, bacterial count (E. coli W3110; 8xMIC, 8 h): 2.301 and 2
time kill kinetics, bacterial count (E. coli W3110; 8xMIC, 24 h): 1.99
bactericidal activity (E. coli W3110; at higher concentrations): bactericidal
